Laboratory results published in patent publication US20220364179A1, “METHODS AND COMPOSITIONS FOR ASSESSING AND PREDICTING THERAPEUTIC RESPONSE” (Lankenau Institute for Medical Research, priority 2019, published 2022).

How the values were obtained:
[1] = test system: metastatic adenocarcinoma of the pancreas; assay: Phase I/II trial NCT02077881: indoximod with gemcitabine plus nab-paclitaxel, responses by IDO2 genotype; format: in vivo, human; details: for PR + CR (positive response), row % / PR + CR, number of patients: + gemcitabine plus nab-paclitaxel
Experimental: The treatment protocol was as described in ClinicalTrials.gov Identifier NCT02077881, which was a Phase I/II trial designed to evaluate the combination of the immunotherapeutic agent indoximod (an IDO inhibitor) and the standard of care chemotherapy gemcitabine plus nab-paclitaxel in subjects with metastatic adenocarcinoma of the pancreas. Participants received oral indoximod (600 mg, […], or 1200 mg according to their assigned dose cohort) twice daily for 28 days concurrently with IV Nab-paclitaxel 125 mg/m^2 given intravenously over 30-40 minutes for 3 weeks (days 1, 8 and 15) with 1 week rest, followed by gemcitabine 1000 mg/m^2 given intravenously over 30 minutes for 3 weeks (days 1, 8 and 15) with 1 week rest. All subjects will receive the standard 28-day gemcitabine plus nab-paclitaxel regimen. Twice daily oral indoximod was administered concurrently in continuous 28 day cycles. Patients continued until they experienced disease progression or significant toxicity.
Genotyping to detect the wild-type IDO2 alleles or a polymorphisms in one or both alleles was performed using a protocol as provided in Example 2.
Two-sample tests of independent proportions were performed to compare the percentage of positive responders between two groups. Observed versus expected genotype distributions were compared using one-sample tests of proportions. The significance level was set to 0.05 and all tests were one-sided except for the tests comparing response by sex and the tests comparing observed and expected genotypes. Analyses were performed in Stata/MP 15.1 (StataCorp LP., Texas, USA). See the data in FIG. 6A -6D.

[2] = test system: melanoma; assay: melanoma cohort, response to therapy by IDO2 genotype; format: in vivo, human
Experimental: In the melanoma cohort, 84 patients were genotyped with 6 patients returning uncertain results. The remaining 78 patients, including 52 males and 26 females, were treated and analyzed in a similar way to the PDAC patients of Example 3 above. The results of the 46 patients, including 31 males and 15 females, in this cohort that responded positively to IDO and/or other indicated therapies were also analyzed.

[3] = test system: rheumatoid arthritis; details: mouse model of rheumatoid arthritis; Merlo et al. 2014; cited from earlier work
[4] = test system: brain metastases; assay: whole brain radiotherapy with low-dose chloroquine in patients with brain metastases; format: in vivo, human; details: low-dose chloroquine in continuous cycles one week before and during standard of care irradiation; N=20; P=0.07
[5] = test system: mouse tumor models; details: cited from earlier work
[6] = Females, all genotypes, no exclusions, Total 40
[7] = Females, excludes (+/p or p/p) uncertain genotype, Total 32
[8] = Males, all genotypes, no exclusions, Total 67
[9] = Males, excludes (+/p or p/p) uncertain genotype, Total 47
[10] = genotype +/+ or +/p, both sexes, Total 56
[11] = genotype +/+ or +/p, females only, Total 22
[12] = genotype +/+ or +/p, males only, Total 34
[13] = genotype +/+, both sexes, excludes uncertain genotype, Total 15
[14] = genotype +/+, females only, excludes uncertain genotype, Total 7
[15] = genotype +/+, males only, excludes uncertain genotype, Total 8
[16] = genotype +/p, both sexes, excludes uncertain genotype, Total 41
[17] = genotype +/p, females only, excludes uncertain genotype, Total 15
[18] = genotype +/p, males only, excludes uncertain genotype, Total 26
[19] = genotype p/p, both sexes, excludes uncertain genotype, Total 23
[20] = genotype p/p, females only, excludes uncertain genotype, Total 10
[21] = genotype p/p, males only, excludes uncertain genotype, Total 13

## Cn1cc(C[C@H](N)C(=O)O)c2ccccc21 [indoximod, 1-methyl-tryptophan]
[1]; [6]
  PR + CR (positive response), row %: 60.0%
  PR + CR, number of patients: 24
[1]; [7]
  PR + CR (positive response), row %: 62.5%
  PR + CR, number of patients: 20
[1]; [8]
  PR + CR (positive response), row %: 43.3%
  PR + CR, number of patients: 29
[1]; [9]
  PR + CR (positive response), row %: 51.1%
  PR + CR, number of patients: 24
[1]; both sexes, excludes (+/p or p/p) uncertain genotype, Total 79
  PR + CR, number of patients: 44
[1]; both sexes, includes uncertain genotype, Total 51
  PR + CR (positive response), row %: 35.3%
[1]; genotype (+/p or p/p) or p/p, both sexes, includes uncertain genotype, Total 51
  PR + CR, number of patients: 18
[1]; genotype (+/p or p/p) or p/p, males only, includes uncertain genotype, Total 33
  PR + CR, number of patients: 9
[1]; [10]
  PR + CR (positive response), row %: 62.5%
  PR + CR, number of patients: 35
[1]; [11]
  PR + CR (positive response), row %: 68.2%
  PR + CR, number of patients: 15
[1]; [12]
  PR + CR (positive response), row %: 58.8%
  PR + CR, number of patients: 20
[1]; [13]
  PR + CR (positive response), row %: 53.3%
  PR + CR, number of patients: 8
[1]; [14]
  PR + CR (positive response), row %: 42.9%
  PR + CR, number of patients: 3
[1]; [15]
  PR + CR (positive response), row %: 62.5%
  PR + CR, number of patients: 5
[1]; [16]
  PR + CR (positive response), row %: 65.9%
  PR + CR, number of patients: 27
[1]; [17]
  PR + CR (positive response), row %: 80.0%
  PR + CR, number of patients: 12
[1]; [18]
  PR + CR (positive response), row %: 57.7%
  PR + CR, number of patients: 15
[1]; [19]
  PR + CR (positive response), row %: 39.1%
  PR + CR, number of patients: 9
[1]; [20]
  PR + CR (positive response), row %: 50.0%
  PR + CR, number of patients: 5
[1]; [21]
  PR + CR (positive response), row %: 30.8%
  PR + CR, number of patients: 4
[1]; males only, includes uncertain genotype, Total 33
  PR + CR (positive response), row %: 27.3%
[1]; whole cohort, both sexes, no exclusions, Total 107
  PR + CR, number of patients: 53
[1]; in combination with gemcitabine in PDAC patients, patients harboring functional IDO2 alleles, initial cohort
  therapeutic responses, outcomes stratified to IDO2 genotype: trend in improved therapeutic responses
[2]; female cohort, patients with the +/+ or +/p alleles
  more frequent response than the expected population: 41%
[2]; female patients without the active allele (p/p)
  less frequent response than the expected population: 70%
[2]; inactive IDO2 genetic configuration, adjuvant radiotherapy including treatment with indoximod
  overall survival: extended overall survival
[3]
  therapeutic responses after deletion of the IDO2 gene: ablate therapeutic responses

## CCN(CC)CCCC(C)Nc1ccnc2cc(Cl)ccc12 (stereo not drawn) [chloroquine]
[4]
  survival outcomes: trend in improvement of survival outcomes

## Cn1cc(CC(N)C(=O)O)c2ccccc21 [D, L-1MT]
[5]
  effect on efficacy of radiotherapy: improve the efficacy of radiotherapy
